In BindingDB's records for doi:10.1016/S0960-894X(00)80229-2 (1992) one finds IC50 data, which are given here for twelve molecules.

This test in a line: Agonistic activity at kappa opioid receptor of rabbit vas deferens.

In general, IC50 refers to the concentration that gives 50% inhibition. Lower therefore signals greater potency.

`CC(=O)N1CCN(C(=O)Cc2ccc(Cl)c(Cl)c2)C(CN2CC[C@H](O)C2)C1` (stereo partly drawn) [1-[4-Acetyl-2-((S)-3-hydroxy-pyrrolidin-1-ylmethyl)-piperazin-1-yl]-2-(3,4-dichloro-phenyl)-ethanone] displayed a 50% inhibitory concentration (IC50) of 0.22 nM.
`CC(=O)N1CCN(C(=O)Cc2cc(F)cc(F)c2)C(CN2CC[C@H](O)C2)C1` (stereo partly drawn) [1-[4-Acetyl-2-((S)-3-hydroxy-pyrrolidin-1-ylmethyl)-piperazin-1-yl]-2-(3,5-difluoro-phenyl)-ethanone] gave a concentration for half-maximal inhibition (IC50) of 4.6 nM.
Regarding `COc1cccc(CC(=O)N2CCN(C(C)=O)CC2CN2CC[C@H](O)C2)c1` (stereo partly drawn) [1-[4-Acetyl-2-((S)-3-hydroxy-pyrrolidin-1-ylmethyl)-piperazin-1-yl]-2-(3-methoxy-phenyl)-ethanone], the IC50 stood at 49 nM.
In the case of `CC(=O)N1CCN(C(=O)Cc2cccc([N+](=O)[O-])c2)C(CN2CC[C@H](O)C2)C1` (stereo partly drawn) [1-[4-Acetyl-2-((S)-3-hydroxy-pyrrolidin-1-ylmethyl)-piperazin-1-yl]-2-(3-nitro-phenyl)-ethanone], the 50% inhibitory concentration (IC50) came out at 14 nM.
Take `CC(=O)N1CCN(C(=O)Cc2ccc([S+](C)[O-])cc2)C(CN2CC[C@H](O)C2)C1` (stereo partly drawn) [1-[4-Acetyl-2-((S)-3-hydroxy-pyrrolidin-1-ylmethyl)-piperazin-1-yl]-2-(4-methanesulfinyl-phenyl)-ethanone]: the IC50 was found to be 140 nM.
In turn, `CC(=O)N1CCN(C(=O)Cc2ccc(S(C)(=O)=O)cc2)C(CN2CC[C@H](O)C2)C1` (stereo partly drawn) [1-[4-Acetyl-2-((S)-3-hydroxy-pyrrolidin-1-ylmethyl)-piperazin-1-yl]-2-(4-methanesulfonyl-phenyl)-ethanone] showed a concentration for half-maximal inhibition (IC50) of 0.9 nM.
`COc1ccc(CC(=O)N2CCN(C(C)=O)CC2CN2CC[C@H](O)C2)cc1` (stereo partly drawn) [1-[4-Acetyl-2-((S)-3-hydroxy-pyrrolidin-1-ylmethyl)-piperazin-1-yl]-2-(4-methoxy-phenyl)-ethanone] returned a half-maximal inhibitory concentration (IC50) of 230 nM.
The molecule `CSc1ccc(CC(=O)N2CCN(C(C)=O)CC2CN2CC[C@H](O)C2)cc1` (stereo partly drawn) [1-[4-Acetyl-2-((S)-3-hydroxy-pyrrolidin-1-ylmethyl)-piperazin-1-yl]-2-(4-methylsulfanyl-phenyl)-ethanone] gave an IC50 of 37 nM.
As to `CC(=O)N1CCN(C(=O)Cc2ccc([N+](=O)[O-])cc2)C(CN2CC[C@H](O)C2)C1` (stereo partly drawn) [1-[4-Acetyl-2-((S)-3-hydroxy-pyrrolidin-1-ylmethyl)-piperazin-1-yl]-2-(4-nitro-phenyl)-ethanone], the IC50 amounted to 6.3 nM.
The molecule `CC(=O)N1CCN(C(=O)Cc2ccc(C(F)(F)F)cc2)C(CN2CC[C@H](O)C2)C1` (stereo partly drawn) [1-[4-Acetyl-2-((S)-3-hydroxy-pyrrolidin-1-ylmethyl)-piperazin-1-yl]-2-(4-trifluoromethyl-phenyl)-ethanone] showed a half-maximal inhibitory concentration (IC50) of 1.5 nM.
`CC(=O)N1CCN(C(=O)Cc2ccccc2)C(CN2CC[C@H](O)C2)C1` (stereo partly drawn) [1-[4-Acetyl-2-((S)-3-hydroxy-pyrrolidin-1-ylmethyl)-piperazin-1-yl]-2-phenyl-ethanone] came in with an IC50 of 400 nM.
In the case of `COC(=O)N1CCN(C(=O)Cc2ccc(Cl)c(Cl)c2)[C@@H](CN2CCCC2)C1` [4-[2-(3,4-Dichloro-phenyl)-acetyl]-3-pyrrolidin-1-ylmethyl-piperazine-1-carboxylic acid methyl ester] it was 0.02 nM.
